Publication PMC9435431, “Novel chemical entities inhibiting Mycobacterium tuberculosis growth identified by phenotypic high-throughput screening” (Scientific Reports, 2022)

Tests used:
[1] = tested on: M. tuberculosis MmpL3 F255L mutant strain; format: cell-based, Mycobacterium tuberculosis
[2] = tested on: M. tuberculosis QcrB A396T mutant strain; format: cell-based, Mycobacterium tuberculosis
M. tuberculosis = format: cell-based
[3] = tested on: M. tuberculosis MmpL3 G253E mutant strain; format: cell-based, Mycobacterium tuberculosis
[4] = tested on: M. tuberculosis MmpL3 Y252C mutant strain; format: cell-based, Mycobacterium tuberculosis
[5] = tested on: M. tuberculosis MmpL3 Y252S mutant strain; format: cell-based, Mycobacterium tuberculosis

With `Cc1nc(-c2ccccn2)nc(NCCNc2ccc(C(F)(F)F)cn2)c1Cl` [APDP-2] the Fold change [1] was 0.5 and the IC90 [1] was 15 µM.

With `Cc1ccc(-c2nnc(C)c(N3CCCC3)n2)cc1` [PYT] the Fold-change [2] was 5.8, the IC90 [2] was 62 µM and the “activity against the QcrB mutant strain (in words)” value [2] was “≥ threefold lower activity”.

Compound `Cc1nc(-c2ccccn2)nc(NCc2ccccc2)c1Cl` [APDP-3] has a Fold change [1] of 3.5 and an IC90 [1] of 22 µM.

For `O=C(O)C(F)(F)F.c1cc(C2CCN(CC3CCCCC3)CC2)ccn1` [Molecule 4PP-32, 4-[1-(Cyclohexylmethyl)-4-piperidyl]pyridine, 2,2,2-trifluoroacetic acid salt], the frequency of resistance (M. tuberculosis) was 7.35 × 10^−8.

`O=C(NCCc1cccc(Br)c1)C1(c2ccccc2Cl)CCC1` [PCB-17, N-(3-bromophenethyl)-1-(2-chlorophenyl)cyclobutane-1-carboxamide] was tested, and the “MmpL3 F255L MIC” value [1] was 9.0 µM, the “MmpL3 G253E MIC” value [3] was 28 µM and the “MmpL3 Y252C MIC” value [4] was 94 µM. The “MmpL3 Y252S MIC” value [5] was 87 µM.

Work on `CC(=O)c1ccc(NC(=O)NC(C)C23CC4CC(CC(C4)C2)C3)cc1` (stereo not shown) [HBU-3] yielded a Fold change [1] of 2.4 and an IC90 [1] of 71 µM.

`CC(C)(C)CC(C)(C)N1CCC(c2ccccc2)CC1` [Molecule 4PP-44, 4-Phenyl-1-(1,1,3,3-tetramethyl-butyl)-piperidine] gave a Fold change [1] of 3.5 and an IC90 [1] of 18 µM.

`Cc1cc(C)n(-c2nc(N)cc(-c3cccc(F)c3)n2)n1` [PZP-2] gave a Fold change [1] of over 13 and an IC90 [1] of over 100 µM.

`O=C(O)C(F)(F)F.c1ccc2c(C3CCN(CC4CCCCC4)CC3)cccc2c1` [Molecule 4PP-31, 1-(Cyclohexylmethyl)-4-(1-naphthyl)piperidine; 2,2,2-trifluoroacetic acid] gave a Fold change [1] of 15 and an IC90 [1] of 45 µM.

With `O=C(NCCc1cccc(Br)c1)C1(c2cccc(Cl)c2)CCC1` [PCB-16, N-(3-bromophenethyl)-1-(3-chlorophenyl)cyclobutane-1-carboxamide] the “MmpL3 F255L MIC” value [1] was 8.0 µM, the “MmpL3 G253E MIC” value [3] was 75 µM and the “MmpL3 Y252C MIC” value [4] was 43 µM. For the same compound, the “MmpL3 Y252S MIC” value [5] was 50 µM.

`Cc1cc(NC2CCCCC2)nc(-n2nc(C)cc2C)n1` [PZP-3] was tested, and the Fold change [1] was 10 and the IC90 [1] was 46 µM.

In the case of `CC(=O)n1nccc1-c1sc(-c2cccs2)nc1C` [TPT], the Fold-change [2] was 8.9, the IC90 [2] was 63 µM and the “activity against the QcrB mutant strain (in words)” value [2] was “≥ threefold lower activity”.

With `CNc1cc(-c2ccccn2)nc(-c2ccccn2)n1` [APDP-1] the Fold change [1] was 0.9 and the IC90 [1] was 9.2 µM.

For `O=C(NCCc1cccc(Br)c1)C1(c2ccccc2Br)CCC1` [PCB-21, N-(3-bromophenethyl)-1-(2-bromophenyl)cyclobutane-1-carboxamide], the “MmpL3 F255L MIC” value [1] was 22 µM, the “MmpL3 G253E MIC” value [3] was 41 µM and the “MmpL3 Y252C MIC” value [4] was 96 µM. The “MmpL3 Y252S MIC” value [5] was over 100 µM and the frequency of resistance (M. tuberculosis) was 5.26 × 10^−8.

`CCC1(N2CCC(c3ccccc3)CC2)CCCCC1` [Molecule 4PP-1, 1-(1-Ethyl-cyclohexyl)-4-phenyl-piperidine] was tested, and the Fold change [1] was 11, the IC90 [1] was 68 µM and the “MmpL3 F255L MIC” value [1] was 68 µM. For the same compound, the “MmpL3 G253E MIC” value [3] was 91 µM, the “MmpL3 Y252C MIC” value [4] was 30 µM and the “MmpL3 Y252S MIC” value [5] was 93 µM.

Work on `O=C(NCCc1ccc(Br)cc1)NC12CC3CC(CC(C3)C1)C2` [HBU-4] yielded a Fold change [1] of over 8.3 and an IC90 [1] of over 100 µM.

For `COc1ccc(-c2cc(N)nc(-n3nc(C)cc3C)n2)cc1` [PZP-1], the Fold change [1] was over 19 and the IC90 [1] was over 100 µM.

`Cc1ccccc1C1(C(=O)NCCc2cccc(Br)c2)CCC1` [PCB-23, N-(3-bromophenethyl)-1-(o-tolyl)cyclobutane-1-carboxamide] was tested, and the “MmpL3 F255L MIC” value [1] was 8.0 µM, the “MmpL3 G253E MIC” value [3] was 27 µM and the “MmpL3 Y252C MIC” value [4] was 83 µM. The “MmpL3 Y252S MIC” value [5] was 82 µM.

`CC1C(CNC(=O)Nc2ccccc2)CC2CC1C2(C)C` (stereo not shown) [HBU-2] gave a Fold change [1] of 8.0 and an IC90 [1] of 39 µM.

With `O=C(Nc1nc2ccccc2s1)NC1C2CC3CC(C2)CC1C3` (stereo not shown) [HBU-1] the Fold change [1] was 1.4 and the IC90 [1] was 6 µM.

`O=C(NCCc1cccc(Br)c1)C1(c2ccc(F)cc2)CCC1` [PCB-19, N-(3-bromophenethyl)-1-(4-fluorophenyl)cyclobutane-1-carboxamide] was tested, and the “MmpL3 F255L MIC” value [1] was 3 µM, the “MmpL3 G253E MIC” value [3] was 20 µM and the “MmpL3 Y252C MIC” value [4] was 45 µM. For the same compound, the “MmpL3 Y252S MIC” value [5] was 35 µM and the frequency of resistance (M. tuberculosis) was 7.0 × 10^−8.

`CC(NC(=O)Nc1nc(-c2ccc(Cl)cc2)cs1)C1CC2C=CC1C2` (stereo not shown) [HBU-5] gave a Fold change [1] of 0.5 and an IC90 [1] of 6.9 µM.
